# Measurements taken from PubChem BioAssay (NCI).
#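 How tested: cells in 96-well plates exposed to compound for 48 hours at five concentrations. GI50 = concentration required for 50% inhibition of growth. The concentration for full growth arrest is given as TGI.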
# How the values were obtained:
# Assay in all cases: NCI-60 cell line screen, 48 h
# LOX IMVI melanoma = test system: LOX IMVI melanoma
# SN12C renal = test system: SN12C renal
# SK-MEL-28 melanoma = test system: SK-MEL-28 melanoma
# HOP-62 NSCLC = test system: HOP-62 NSCLC
# DLD-1 colon = test system: DLD-1 colon
# SF-295 CNS = test system: SF-295 CNS
# HCT-15 colon = test system: HCT-15 colon
# SR leukemia = test system: SR leukemia
# MCF7 breast = test system: MCF7 breast
SMILES,TGI (LOX IMVI melanoma),TGI (SN12C renal),TGI (SK-MEL-28 melanoma),TGI (HOP-62 NSCLC),TGI (DLD-1 colon),TGI (SF-295 CNS),TGI (HCT-15 colon),TGI (SR leukemia),GI50 (LOX IMVI melanoma),GI50 (MCF7 breast),TGI (MCF7 breast),GI50 (SN12C renal),GI50 (SK-MEL-28 melanoma),GI50 (HCT-15 colon),GI50 (SR leukemia),GI50 (HOP-62 NSCLC),GI50 (SF-295 CNS),GI50 (DLD-1 colon)
Cc1cc(=O)n2c3c(c4c(cc13)c(CO)cc(=O)n4C)OC2,21.1 µM,> 100 µM,78.7 µM,40.2 µM,> 100 µM,> 100 µM,–,–,–,–,–,–,–,–,–,–,–,–
O=C(/C=C/c1ccccc1Cl)c1cccc2ccccc12,24.3 µM,> 100 µM,28.1 µM,28.9 µM,25.1 µM,25.4 µM,17.2 µM,9.16 µM,–,–,–,–,–,–,–,–,–,–
CCOC(=O)C1=C(C)N(Cc2ccccc2)C(=O)C1CC#N (stereo not given),–,> 100 µM,> 100 µM,> 100 µM,> 100 µM,> 100 µM,> 100 µM,> 100 µM,–,–,–,–,–,–,–,–,–,–
C[C@]12CCC[C@H](O)[C@H]1C[C@H](CO)CC2,> 100 µM,> 100 µM,> 100 µM,> 100 µM,> 100 µM,> 100 µM,> 100 µM,> 100 µM,–,–,–,–,–,–,–,–,–,–
O=C(NNc1ccc(F)cc1)C1CCC(CNS(=O)(=O)c2ccc(Cl)c(Cl)c2)CC1 (stereo not given),14.4 µM,> 50 µM,> 50 µM,> 50 µM,–,45.5 µM,> 50 µM,> 50 µM,2.08 µM,7.73 µM,> 50 µM,7.97 µM,> 50 µM,7.63 µM,17 µM,15.9 µM,2.16 µM,–
COC(=O)C[CH2][Ge]([CH3])([CH3])[S]c1ccccc1,26.2 µM,37.2 µM,> 100 µM,65.4 µM,42.9 µM,62.3 µM,28.8 µM,–,12.5 µM,–,–,18.3 µM,36 µM,15.4 µM,–,22.6 µM,18 µM,20.3 µM
NC1=NN(c2ccccc2)C(=O)C1/C(=N\NC(=O)c1cc2ccccc2cc1O)C(=O)Nc1cccc(C(F)(F)F)c1 (stereo not given),> 100 µM,> 100 µM,> 100 µM,> 100 µM,> 100 µM,> 100 µM,–,–,–,–,–,–,–,–,–,–,–,–
Cc1[nH]c(C(=O)Nc2ccccc2OC2CCNCC2)c(Cl)c1Cl,1.61 µM,1.59 µM,1.97 µM,1.63 µM,–,1.68 µM,1.88 µM,5.69 µM,0.882 µM,0.882 µM,1.68 µM,0.86 µM,1.01 µM,0.912 µM,1.46 µM,0.812 µM,0.917 µM,–
COc1ccc2c(c1)[n+]([O-])c(-c1ccc(Br)cc1)c(N)[n+]2[O-],–,> 100 µM,71.5 µM,> 100 µM,> 100 µM,> 100 µM,–,> 100 µM,–,–,–,–,–,–,–,–,–,–
CC1(c2cccc(N)c2)C2C(=O)NC(=O)C1C(=O)NC2=O (stereo not given),81.1 µM,97.7 µM,> 100 µM,> 100 µM,> 100 µM,58.8 µM,> 100 µM,–,–,–,–,–,–,–,–,–,–,–
CCN(Cc1ccccc1Cl)c1ccc(CO)c(Cl)c1,30.5 µM,24 µM,24.7 µM,16.1 µM,–,7.45 µM,24 µM,45.1 µM,16 µM,0.442 µM,12.1 µM,11.5 µM,11.8 µM,10.2 µM,17.3 µM,2.46 µM,0.775 µM,–
N#Cc1cc([N+](=O)[O-])ccc1NC(=O)C(F)(F)F,> 49.7 µM,> 100 µM,> 100 µM,> 100 µM,> 100 µM,> 100 µM,> 58.5 µM,> 100 µM,–,–,–,–,–,–,–,–,–,–
CCC(CCC(C)C1CCC2C3CC=C4CC(OC5OC(CO)C(O)C(O)C5O)CCC4(C)C3CCC12C)C(C)C (stereo not given),> 100 µM,> 100 µM,> 100 µM,> 100 µM,–,> 100 µM,> 100 µM,> 100 µM,–,–,> 100 µM,–,–,–,–,–,–,–
NC(=S)N/N=C/c1ccc(N)cn1,> 10 µM,> 10 µM,> 10 µM,> 10 µM,–,> 10 µM,> 10 µM,> 10 µM,–,–,> 10 µM,–,–,–,–,–,–,–
Clc1cc2c(nn1)Nc1ccccc1S2,> 100 µM,> 100 µM,> 100 µM,> 100 µM,–,> 100 µM,> 100 µM,> 100 µM,> 100 µM,> 100 µM,> 100 µM,> 100 µM,> 100 µM,> 100 µM,> 100 µM,> 100 µM,> 100 µM,–
C/C=C(/CCC1NCCC2c3ccccc3NC12)[Si](C)(C)C (stereo not given),20.2 µM,23.9 µM,16.9 µM,28.6 µM,17.1 µM,29.1 µM,24.9 µM,12.5 µM,–,–,–,–,–,–,–,–,–,–
COc1cccc(NC(=O)C(C)(C)C)c1SSc1c(NC(=O)C(C)(C)C)cccc1OC,30.4 µM,> 54.9 µM,> 57.9 µM,> 100 µM,> 61.8 µM,> 100 µM,44.4 µM,55.3 µM,–,–,–,–,–,–,–,–,–,–
O=C(c1ccco1)c1c(C(F)(F)F)nc2ccc(C(F)(F)F)cc2[n+]1[O-],> 100 µM,> 100 µM,80.6 µM,46.3 µM,–,> 100 µM,> 100 µM,> 100 µM,47.8 µM,33.6 µM,> 100 µM,43.4 µM,25.2 µM,> 86.9 µM,> 91.7 µM,19.8 µM,33.2 µM,–
Cn1c(=O)c2ccc(-c3ccc(Br)cc3)nc2n(C)c1=O,> 100 µM,–,> 100 µM,> 100 µM,> 100 µM,> 100 µM,> 100 µM,> 100 µM,–,–,–,–,–,–,–,–,–,–
O=S1(=O)NC2CCC3NS(=O)(=O)NC4CCC(N1)N4S(=O)(=O)N23 (stereo not given),> 100 µM,> 100 µM,> 100 µM,> 100 µM,–,> 100 µM,> 100 µM,> 100 µM,–,–,> 100 µM,–,–,–,–,–,–,–
CSCC[C@H](NC(=O)[C@H](CC(C)C)NC(=O)[C@@H](Cc1ccccc1)NC(=O)CNC(=O)[C@@H](NC(=O)[C@H](C)NC(=O)[C@H](Cc1c[nH]c2ccccc12)NC(=O)[C@H](CCC(N)=O)NC(=O)[C@H](N)CC(N)=O)C(C)C)C(N)=O,> 12.5 µM,> 12.5 µM,> 12.5 µM,> 12.5 µM,–,> 12.5 µM,> 12.5 µM,10.7 µM,–,–,> 12.5 µM,–,–,–,–,–,–,–
